Experimental data as given in patent US10894817B2, “Fatty acid modified urocortin-2 analogs for the treatment of diabetes and chronic kidney disease” (priority 2016, dated 2021).
Like-named read-outs stand apart in the source and are kept apart here. Starred links: 1 amine or outer side, 2 acyl side, 3 side chain; linkers in the order of their positions; H or OH if unused. Non-standard residues stand in square brackets, D forms with d. Residues, ends and D or L forms follow the SMILES beside them. Groups on a side chain read outwards from the residue. *: point of attachment. C20 diacid = O=C(O)CCCCCCCCCCCCCCCCCCC(=O)*; C18 diacid = O=C(O)CCCCCCCCCCCCCCCCC(=O)*; γGlu = O=C(O)[C@H](CCC(=O)[*:2])N[*:1]; Palmitoyl = CCCCCCCCCCCCCCCC(=O)*; NMeI = CC[C@H](C)[C@H](NC)C(=O)O; AEEA = NCCOCCOCC(=O)O

Target: T1, human CRHR2b (Homo sapiens, UniProt Q13324)
T1 construct: expressed in transfected cells; host or cells: Chinese Hamster Ovary (CHO) cells, transient transfection
T1 sequence (Q13324 1-438 isoform Q13324-2): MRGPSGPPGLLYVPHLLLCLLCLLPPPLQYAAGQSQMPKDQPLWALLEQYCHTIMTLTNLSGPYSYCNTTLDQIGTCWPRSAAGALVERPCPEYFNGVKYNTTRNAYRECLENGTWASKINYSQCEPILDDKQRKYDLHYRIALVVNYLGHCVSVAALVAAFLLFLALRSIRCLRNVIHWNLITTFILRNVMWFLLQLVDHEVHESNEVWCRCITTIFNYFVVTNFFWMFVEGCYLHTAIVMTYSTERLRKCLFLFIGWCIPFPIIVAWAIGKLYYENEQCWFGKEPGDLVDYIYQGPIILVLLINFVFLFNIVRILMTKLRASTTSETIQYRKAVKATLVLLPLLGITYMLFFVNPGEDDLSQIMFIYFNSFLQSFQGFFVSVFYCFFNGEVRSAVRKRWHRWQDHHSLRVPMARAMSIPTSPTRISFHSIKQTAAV
Test: human CRHR2b cell-based cAMP assay
Outline: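 ED50 values are means ± SEM over several runs, curve-fitted from cAMP in pmol, calibrated against unlabeled-cAMP standards. Detection was HTRF competition, ratio 665/620 nm, after 30 min agonist exposure at 37 °C.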

[1] = cAMP assay, Table 26, compounds of Example 9, read-out: hCRHR2b Average EC50

SMILES | EC50 [1] | other results
CCCCCCCCCCCCCCCC(=O)N[C@@H](CCC(=O)N[C@@H](CCC(=O)NCCCC[C@H](NC(=O)[C@H](CCCCN)NC(=O)[C@H](CCC(=O)O)NC(=O)[C@H](CCCCN)NC(=O)[C@H](CCC(=O)O)NC(=O)[C@H](CCC(N)=O)NC(=O)[C@H](CCCCN)NC(=O)[C@H](CCC(=O)O)NC(=O)[C@H](CCC(N)=O)NC(=O)[C@H](CCC(=O)O)NC(=O)[C@H](CC(C)C)NC(=O)[C@H](CC(C)C)NC(=O)[C@@H](NC(=O)[C@H](CCC(N)=O)NC(=O)[C@H](CC(C)C)NC(=O)[C@H](CC(C)C)NC(=O)CNC(=O)[C@@H](NC(=O)[C@@H]1CCCN1C(=O)[C@@H](NC(=O)[C@H](CC(=O)O)NC(=O)[C@H](CC(C)C)NC(=O)[C@H](CO)NC(=O)[C@H](CC(C)C)NC(=O)[C@@H](NC(=O)[C@@H](N)[C@@H](C)CC)C(C)C)C(C)C)[C@@H](C)CC)[C@@H](C)CC)C(=O)N[C@@H](CCC(N)=O)C(=O)N[C@@H](C)C(=O)N[C@H](C(=O)N[C@H](C(=O)N[C@@H](CC(N)=O)C(=O)N[C@@H](C)C(=O)N[C@@H](CCCNC(=N)N)C(=O)N[C@H](C(=O)N[C@@H](CC(C)C)C(=O)N[C@@H](C)C(=O)N[C@@H](CCCNC(=N)N)C(=O)N[C@H](C(N)=O)C(C)C)[C@@H](C)CC)[C@@H](C)O)[C@@H](C)O)C(=O)O)C(=O)O [Compound 34] (H-IVLSLDVPIGLLQILLEQEKQEKEKK([γGlu-γGlu-Palmitoyl])QATTNARILARV-NH2) | 4.54 nM | 
CCCCCCCCCCCCCCCC(=O)N[C@@H](CCC(=O)NCCCC[C@H](NC(=O)[C@H](CCC(N)=O)NC(=O)[C@H](CCCCN)NC(=O)[C@H](CCC(=O)O)NC(=O)[C@H](CCCCN)NC(=O)[C@H](CCC(=O)O)NC(=O)[C@H](CCC(N)=O)NC(=O)[C@H](CCCCN)NC(=O)[C@H](CCC(=O)O)NC(=O)[C@H](CCC(N)=O)NC(=O)[C@H](CCC(=O)O)NC(=O)[C@H](CC(C)C)NC(=O)[C@H](CC(C)C)NC(=O)[C@@H](NC(=O)[C@H](CCC(N)=O)NC(=O)[C@H](CC(C)C)NC(=O)[C@H](CC(C)C)NC(=O)CNC(=O)[C@@H](NC(=O)[C@@H]1CCCN1C(=O)[C@@H](NC(=O)[C@H](CC(=O)O)NC(=O)[C@H](CC(C)C)NC(=O)[C@H](CO)NC(=O)[C@H](CC(C)C)NC(=O)[C@@H](NC(=O)[C@@H](N)[C@@H](C)CC)C(C)C)C(C)C)[C@@H](C)CC)[C@@H](C)CC)C(=O)N[C@@H](C)C(=O)N[C@H](C(=O)N[C@H](C(=O)N[C@@H](CC(N)=O)C(=O)N[C@@H](C)C(=O)N[C@@H](CCCNC(=N)N)C(=O)N[C@H](C(=O)N[C@@H](CC(C)C)C(=O)N[C@@H](C)C(=O)N[C@@H](CCCNC(=N)N)C(=O)N[C@H](C(N)=O)C(C)C)[C@@H](C)CC)[C@@H](C)O)[C@@H](C)O)C(=O)O [Compound 35] (H-IVLSLDVPIGLLQILLEQEKQEKEKQK([γGlu-Palmitoyl])ATTNARILARV-NH2) | 404 nM | 
CC[C@H](C)[C@H](N)C(=O)N[C@H](C(=O)N[C@@H](CC(C)C)C(=O)N[C@@H](CO)C(=O)N[C@@H](CC(C)C)C(=O)N[C@@H](CC(=O)O)C(=O)N[C@H](C(=O)N1CCC[C@H]1C(=O)N[C@H](C(=O)NCC(=O)N[C@@H](CC(C)C)C(=O)N[C@@H](CC(C)C)C(=O)N[C@@H](CCC(N)=O)C(=O)N[C@H](C(=O)N[C@@H](CC(C)C)C(=O)N[C@@H](CC(C)C)C(=O)N[C@@H](CCCCNC(=O)COCCOCCNC(=O)COCCOCCNC(=O)CC[C@H](NC(=O)CC[C@H](NC(=O)CCCCCCCCCCCCCCCCC(=O)O)C(=O)O)C(=O)O)C(=O)N[C@@H](CCC(N)=O)C(=O)N[C@@H](CCC(=O)O)C(=O)N[C@@H](CCCCN)C(=O)N[C@@H](CCC(N)=O)C(=O)N[C@@H](CCC(=O)O)C(=O)N[C@@H](CCCCN)C(=O)N[C@@H](CCC(=O)O)C(=O)N[C@@H](CCCCN)C(=O)N[C@@H](CCC(N)=O)C(=O)N[C@@H](CCC(N)=O)C(=O)N[C@@H](C)C(=O)N[C@H](C(=O)N[C@@H](CCC(=O)O)C(=O)N[C@@H](CC(N)=O)C(=O)N[C@@H](C)C(=O)N[C@@H](CCC(N)=O)C(=O)N[C@H](C(=O)N[C@@H](CC(C)C)C(=O)N[C@@H](C)C(=O)N[C@@H](CCC(N)=O)C(=O)N[C@H](C(N)=O)C(C)C)[C@@H](C)CC)[C@@H](C)O)[C@@H](C)CC)[C@@H](C)CC)C(C)C)C(C)C [Compound 53] (H-IVLSLDVPIGLLQILLK([AEEA-AEEA-γGlu-γGlu-C18 diacid])QEKQEKEKQQATENAQILAQV-NH2) |  | EC50: 4.01 nM
CC[C@H](C)[C@H](NC)C(=O)N[C@H](C(=O)N[C@H](C(=O)N[C@@H](CO)C(=O)N[C@@H](CC(C)C)C(=O)N[C@@H](CC(=O)O)C(=O)N[C@H](C(=O)N1CCC[C@H]1C(=O)N[C@H](C(=O)NCC(=O)N[C@@H](CC(C)C)C(=O)N[C@@H](CC(C)C)C(=O)N[C@@H](CCC(N)=O)C(=O)N[C@H](C(=O)N[C@@H](CC(C)C)C(=O)N[C@H](C(=O)N[C@@H](CCC(=O)O)C(=O)N[C@@H](CCC(N)=O)C(=O)N[C@@H](CCC(=O)O)C(=O)N[C@@H](CCCCN)C(=O)N[C@@H](CCC(N)=O)C(=O)N[C@@H](CCC(=O)O)C(=O)N[C@@H](CCCCN)C(=O)N[C@@H](CCC(=O)O)C(=O)N[C@@H](CCCCN)C(=O)N[C@@H](CCC(N)=O)C(=O)N[C@@H](CCC(N)=O)C(=O)N[C@@H](C)C(=O)N[C@@H](CCCCNC(=O)COCCOCCNC(=O)COCCOCCNC(=O)CC[C@H](NC(=O)CC[C@H](NC(=O)CCCCCCCCCCCCCCCCCCC(=O)O)C(=O)O)C(=O)O)C(=O)N[C@H](C(=O)N[C@@H](CC(N)=O)C(=O)N[C@@H](C)C(=O)N[C@@H](CCC(=O)O)C(=O)N[C@H](C(=O)N[C@@H](CC(C)C)C(=O)N[C@@H](C)C(=O)N[C@@H](CCC(N)=O)C(=O)N[C@H](C(N)=O)C(C)C)[C@@H](C)CC)[C@@H](C)O)[C@@H](C)CC)[C@@H](C)CC)[C@@H](C)CC)C(C)C)[C@@H](C)O)C(C)C [Example 7] (H-[NMeI]VTSLDVPIGLLQILIEQEKQEKEKQQAK([AEEA-AEEA-γGlu-γGlu-C20 diacid])TNAEILAQV-NH2) |  | EC50 (cAMP assay, CHO cells transfected with human CRHR2b, mean ± SEM of runs, read-out: hCRHR2b Average EC50): 0.94 ± 0.05 nM

More lines, main results first:

EC50 [1] | SMILES | other results
2.55 nM | CC[C@H](C)[C@H](NC)C(=O)N[C@H](C(=O)N[C@@H](CC(C)C)C(=O)N[C@@H](CO)C(=O)N[C@@H](CC(C)C)C(=O)N[C@@H](CC(=O)O)C(=O)N[C@H](C(=O)N1CCC[C@H]1C(=O)N[C@H](C(=O)NCC(=O)N[C@@H](CC(C)C)C(=O)N[C@@H](CC(C)C)C(=O)N[C@@H](CCC(N)=O)C(=O)N[C@H](C(=O)N[C@@H](CC(C)C)C(=O)N[C@@H](CC(C)C)C(=O)N[C@@H](CCC(=O)O)C(=O)N[C@@H](CCC(N)=O)C(=O)N[C@@H](CCC(=O)O)C(=O)N[C@@H](CCCCN)C(=O)N[C@@H](CCC(N)=O)C(=O)N[C@@H](CCC(=O)O)C(=O)N[C@@H](CCCCN)C(=O)N[C@@H](CCC(=O)O)C(=O)N[C@@H](CCCCN)C(=O)N[C@@H](CCC(N)=O)C(=O)N[C@@H](CCC(N)=O)C(=O)N[C@@H](C)C(=O)N[C@@H](CCCCNC(=O)CC[C@H](NC(=O)COCCOCCNC(=O)COCCOCCNC(=O)CC[C@H](NC(=O)CC[C@H](NC(=O)CCCCCCCCCCCCCCCCCCC(=O)O)C(=O)O)C(=O)O)C(=O)O)C(=O)N[C@H](C(=O)N[C@@H](CC(N)=O)C(=O)N[C@@H](C)C(=O)N[C@@H](CCC(N)=O)C(=O)N[C@H](C(=O)N[C@@H](CC(C)C)C(=O)N[C@@H](C)C(=O)N[C@@H](CCC(N)=O)C(=O)N[C@H](C(N)=O)C(C)C)[C@@H](C)CC)[C@@H](C)O)[C@@H](C)CC)[C@@H](C)CC)C(C)C)C(C)C [Compound 60] (H-[NMeI]VLSLDVPIGLLQILLEQEKQEKEKQQAK([γGlu-AEEA-AEEA-γGlu-γGlu-C20 diacid])TNAQILAQV-NH2) | 
2.42 nM | CC[C@H](C)[C@H](N)C(=O)N[C@H](C(=O)N[C@@H](CC(C)C)C(=O)N[C@@H](CO)C(=O)N[C@@H](CC(C)C)C(=O)N[C@@H](CC(=O)O)C(=O)N[C@H](C(=O)N1CCC[C@H]1C(=O)N[C@H](C(=O)NCC(=O)N[C@@H](CC(C)C)C(=O)N[C@@H](CC(C)C)C(=O)N[C@@H](CCC(N)=O)C(=O)N[C@H](C(=O)N[C@@H](CC(C)C)C(=O)N[C@@H](CC(C)C)C(=O)N[C@@H](CCC(=O)O)C(=O)N[C@@H](CCC(N)=O)C(=O)N[C@@H](CCC(=O)O)C(=O)N[C@@H](CCCCN)C(=O)N[C@@H](CCC(N)=O)C(=O)N[C@@H](CCC(=O)O)C(=O)N[C@@H](CCCCN)C(=O)N[C@@H](CCC(=O)O)C(=O)N[C@@H](CCCCN)C(=O)N[C@@H](CCCCNC(=O)COCCOCCNC(=O)COCCOCCNC(=O)CC[C@H](NC(=O)CC[C@H](NC(=O)CCCCCCCCCCCCCCCCC(=O)O)C(=O)O)C(=O)O)C(=O)N[C@@H](CCC(N)=O)C(=O)N[C@@H](C)C(=O)N[C@H](C(=O)N[C@H](C(=O)N[C@@H](CC(N)=O)C(=O)N[C@@H](C)C(=O)N[C@@H](CCC(N)=O)C(=O)N[C@H](C(=O)N[C@@H](CC(C)C)C(=O)N[C@@H](C)C(=O)N[C@@H](CCC(N)=O)C(=O)N[C@H](C(N)=O)C(C)C)[C@@H](C)CC)[C@@H](C)O)[C@@H](C)O)[C@@H](C)CC)[C@@H](C)CC)C(C)C)C(C)C [Compound 51] (H-IVLSLDVPIGLLQILLEQEKQEKEKK([AEEA-AEEA-γGlu-γGlu-C18 diacid])QATTNAQILAQV-NH2) | 
